Source: patent US20170157055A1, “PHAR[…] DETERRENT COMPOSITION” (priority 2014, published 2017)
Like-named read-outs stand apart in the source and are kept apart here.

Experimental: 350 mg of potassium bicarbonate equivalent to single dosage unit was added in beaker 1 while of potassium bicarbonate equivalent to three dosage units were added in beaker 2.

SMILES: O=C([O-])O.[K+] [potassium bicarbonate]
- pH of media after addition (beaker 1: 350 mg (single dosage unit) in 900 ml 0.01N HCl (initial pH 1.90)): 2.30
- pH of media after addition (beaker 2: equivalent to three dosage units in 900 ml 0.01N HCl (initial pH 1.90)): 6.15
